Each block holds one compound with its values, some of them ahead of it.
Key:
[1] = method code SF-AS, from DOI: 10.1093/ajhp/38.9.1308, PMID: 7282713
[2] = method code SF-RC,FL, from DOI: 10.1016/0006-2952(81)90006-x, PMID: 6456004
[3] = method code SF-AS, from DOI: 10.1111/j.2042-7158.1981.tb11766.x; conditions: pH 1.0
[4] = method code SF-HPLC, from DOI: 10.1021/je900271h
[5] = method code SF, from DOI: 10.1080/09553009014551091, PMID: 1970998; conditions: pH 7.4
[6] = not given; remark: listed apart in the source
[7] = not given; remark: listed apart in the source
[8] = not given; remark: listed apart in the source
[9] = method code SF-GLC, from DOI: 10.1016/0378-4274(82)90116-3, PMID: 7090003
[10] = method code SF-RC, from Audran, M.; Chanal, J.; Marignan, R.; Cousse, H. (1984). Correlations between structure and pharmacokinetic parameters in a series of cresotinamides. International Journal of Pharmaceutics, …; conditions: pH 1.0
[11] = not given; remark: listed apart in the source
[12] = method code SF-HPLC, from DOI: 10.1021/jf0623440, PMID: 17263479
[13] = method code SF-HPLC, from PMID: 11745753; conditions: pH 7.4
[14] = method code SF-AS, from Halmekoski, J.; Hannikainen, H. (1964). Rm values of hydroxy-substituted benzoic acids and partition coefficients of the acids between water and aliphatic alcohols. Suomen Kemist. B, 37, 221-226.
[15] = method code SF-GLC, from DOI: 10.1271/bbb1961.46.2755
[16] = method code SF, from DOI: 10.1002/jps.2600641111, PMID: 1195110; conditions: pH 7.4
[17] = method code SF-HPLC, from DOI: 10.1002/jps.2600750520, PMID: 3735094; conditions: pH 4.0
[18] = method code SF-AS, from DOI: 10.1016/0006-2952(74)90620-0, PMID: 4822742; conditions: pH 7.4
[19] = not given; remark: listed apart in the source
[20] = method code SF-AS, from DOI: 10.1248/cpb.26.2824
[21] = method code SF-GLC, from DOI: 10.1016/s0022-3565(25)30310-1, PMID: 1181405; conditions: pH 7.4
[22] = method code SF-HPLC, from PMID: 3268116; conditions: pH 7.0
[23] = method code SF-AS,RC, from DOI: 10.2307/3575891, PMID: 7122830
[24] = method code SF-AS, from DOI: 10.1021/es00082a014; conditions: pH 7.0
[25] = not given; remark: listed apart in the source
[26] = method code SF-AS, from DOI: 10.1016/s0045-6535(00)00181-8, PMID: 11272912
[27] = method code SF-CR, from DOI: 10.1042/bj1780443, PMID: 109087; conditions: pH 7.4
[28] = method code SF-AS, from DOI: 10.1016/0378-5173(80)90117-9
[29] = not given; remark: listed apart in the source
[30] = method code SF-AS, from DOI: 10.1007/s0012800114, PMID: 10885996
[31] = not given; remark: listed apart in the source
[32] = method code SF-HPLC, from Hairsine, P. (1997). Direct measurement of partition coefficient by shake flask technique and gradient elution HPLC. Lab. Practice, 38(11)73-75.
[33] = method code SF-LC/MS, from DOI: 10.1002/rcm.3594, PMID: 18543375; conditions: pH 7.4
[34] = method code SF-GLC, from DOI: 10.1039/an9709500763, PMID: 5449617
[35] = not given; remark: listed apart in the source
[36] = method code SF, from DOI: 10.1038/248065a0, PMID: 4150456; conditions: pH 9.0
[37] = not given; remark: listed apart in the source
[38] = method code SF-AS, from DOI: 10.1016/j.ejmech.2004.01.002, PMID: 15072846; conditions: pH 7.4
[39] = not given; remark: listed apart in the source
[40] = method code SF-AS, from DOI: 10.1148/radiology.194.3.7862981, PMID: 7862981
[41] = method code …, from Buur, A., & Bundgaard, H. (1984). Prodrugs of 5-fluorouracil. II. Hydrolysis kinetics, bioactivation, solubility and lipophilicity of N-alkoxycarbonyl derivatives of 5-fluorouracil. Arch. Pharm. …; conditions: pH 4.0
[42] = method code SF-RC, from DOI: 10.1038/sj.bjc.6601862, PMID: 15150578
[43] = method code SF-AS, from DOI: 10.1016/s0022-3565(25)24763-2, PMID: 2019981; conditions: pH 7.4
[44] = method code SF-HPLC, from DOI: 10.1002/ps.2780370106; conditions: pH 0.0
[45] = method code SF-AS, from DOI: 10.1016/j.jhazmat.2007.11.074, PMID: 18180104
[46] = method code SF-AS, from DOI: 10.1248/cpb.28.85; conditions: pH 2.0
[47] = method code SF, from DOI: 10.1021/jm020367+, PMID: 12502371
[48] = method code SF-AS, from DOI: 10.2116/analsci.8.761; conditions: pH 6.0
[49] = method code SF-HPLC, from DOI: 10.1016/s0021-9673(01)81976-2, PMID: 4066822

logP [1]: 1
Compound: NNc1nncc2ccccc12

logP: 2.3
Compound: COC(=O)c1nc(Cl)c(Cl)c(N)c1Cl

logD [3]: 1.56
Compound: O=C(O)c1ccc(O)cc1

logP [4]: 1.46
Compound: COc1cc(C(=O)O)ccc1O

logD [10]: 2.12
Compound: Cc1cccc(C(N)=O)c1O

logD [13]: 1.48
Compound: COC(=O)c1ccc(N)cc1

logP [14]: 1.12
Compound: O=C(O)c1cc(O)ccc1O

logD [18]: 1.08
Compound: CC1=NS(=O)(=O)c2cc(Cl)ccc2N1

logP [20]: 2.78
Compound: Cc1ccc(O)c(C(=O)O)c1

logD [22]: 2.27
Compound: c1ccc2[nH]ccc2c1

logP [25]: 2.63
Compound: C1=CC=CCC=C1

logP [26]: 2.5
Compound: O=Cc1cc(Br)ccc1O

logD [27]: 2.4
Compound: CCc1ccc(O)cc1

logP [28]: 1.95
Compound: CCOc1ccc(O)cc1

logP [29]: 1.9
Compound: O=C(O)c1ccc([N+](=O)[O-])cc1

logP [30]: 0.35
Compound: CS(=O)(=O)c1ccc(C=O)cc1

logP [35]: 2.38
Compound: COc1ccc([N+](=O)[O-])c(C)c1

logD [38]: 0.97
Compound: NC(=O)N/N=C/C=C/c1ccc([N+](=O)[O-])o1

logD [43]: 0.6
Compound: CCc1occc(=O)c1O

logD [44]: 0.73
Compound: NC(=O)Nc1ccc(C(=O)O)cc1

logP [45]: 1.98
Compound: CNc1ccc([N+](=O)[O-])cc1

logP [47]: 0.46
Compound: Nc1n[n+]([O-])c2cc(Cl)ccc2[n+]1[O-]

logD [48]: 0.48
Compound: OCc1ccc(O)cc1

logP [49]: 0.34
Compound: COC1=C(OC)C(=O)C=CC1=O

The remaining lines, values behind:

Compound: NCCc1ccc(O)c(O)c1
logP [2]: -0.97

Compound: O=C(NCCO)C(F)(F)Cn1ccnc1[N+](=O)[O-]
logD [5]: -0.52

Compound: Cc1ncc(COP(=O)(O)O)c(C=O)c1O
logP [6]: 0.37

Compound: CC(C)OC(C)(C)C
logP [7]: 2.14

Compound: COP(=S)(OC)Oc1cc(Cl)c(Cl)cc1Cl
logP [8]: 4.67

Compound: C=C(C)C(=O)OC(C)C
logP [9]: 2.25

Compound: O=[N+]([O-])c1nccn1[C@@H]1O[C@H](CO)[C@@H](O)[C@H]1O
logP [11]: -1.15

Compound: O=[N+]([O-])/C=C1/NCCN1Cc1cnc(Cl)s1
logP [12]: 0.03

Compound: CCCS(=O)(=O)CCC
logP [15]: 0.39

Compound: CC(=O)OCCn1c([N+](=O)[O-])cnc1C
logD [16]: 0.3

Compound: O=C(OCCCl)n1cc(F)c(=O)[nH]c1=O
logD [17]: 0.02

Compound: Cc1ccc([N+](=O)[O-])cc1N
logP [19]: 1.87

Compound: CCCCCOC(=O)NC
logD [21]: 1.96

Compound: COCC(O)Cn1cc(Br)nc1[N+](=O)[O-] (stereo not given)
logP [23]: 0.46

Compound: Cc1ccc(N)cc1C
logD [24]: 1.86

Compound: S=C=Nc1ccc(Br)cc1
logP [31]: 4.03

Compound: COc1ccccc1C(=O)O
logP [32]: 1.62

Compound: c1ccc2[nH]cnc2c1
logD [33]: 1.53

Compound: COP(=O)(OC)Oc1ccc([N+](=O)[O-])cc1
logP [34]: 1.33

Compound: CNC(=S)NCCSCc1c[nH]cn1
logD [36]: 0.16

Compound: CCCCCCCBr
logP [37]: 4.44

Compound: O=NN(CCF)C(=O)NC1CCS(=O)(=O)CC1
logP [39]: -0.41

Compound: O=[N+]([O-])c1nccn1C[C@H](O)[C@H](O)CF
logP [40]: -0.77

Compound: CCOC(=O)n1c(=O)[nH]cc(F)c1=O
logD [41]: 0.11

Compound: O=C(Cn1ccnc1[N+](=O)[O-])NCCF
logP [42]: -0.8

Compound: O=C(O)COc1ccccc1
logD [46]: 1.35
